The source made the active and inactive calls. No cut-off for these calls is given here.
Target: Rhodesain (Trypanosoma brucei rhodesiense) (UniProt Q95PM0)
Assay: Inhibition of Trypanosoma brucei rhodesiense rhodesain using Cbz-Phe-Arg-7-amino-4-methylcoumarin assessed as substrate hydrolysis at 100 uM measured by fluorescence analysis for 10 mins
Conditions: not given

Chain of Rhodesain (Trypanosoma brucei rhodesiense) (Q95PM0 1-450): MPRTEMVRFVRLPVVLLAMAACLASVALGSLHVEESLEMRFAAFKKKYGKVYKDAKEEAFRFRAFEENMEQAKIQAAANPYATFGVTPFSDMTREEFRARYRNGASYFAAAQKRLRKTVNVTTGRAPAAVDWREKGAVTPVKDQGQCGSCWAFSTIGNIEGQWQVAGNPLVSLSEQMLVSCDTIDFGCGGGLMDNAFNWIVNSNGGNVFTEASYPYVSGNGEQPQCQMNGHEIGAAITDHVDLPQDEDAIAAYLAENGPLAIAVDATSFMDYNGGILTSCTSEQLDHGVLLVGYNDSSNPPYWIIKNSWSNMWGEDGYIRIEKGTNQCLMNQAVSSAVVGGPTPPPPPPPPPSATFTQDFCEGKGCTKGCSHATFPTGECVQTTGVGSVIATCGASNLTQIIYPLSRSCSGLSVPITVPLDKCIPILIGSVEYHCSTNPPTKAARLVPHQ

Structure (SMILES)	inhibition
C=CCOC(=O)N[C@@H](Cc1ccccc1)C(=O)N1C[C@@H]2C(Br)=NO[C@@H]2C1	> 40%
CCCOC(=O)N[C@@H](CCc1ccccc1)C(=O)N1CC2ON=C(Br)C2C1 (mixture of isomers)	15.3%
O=C(N[C@@H](CCc1ccccc1)C(=O)N1CC2ON=C(Br)C2C1)OCc1ccccc1 (mixture of isomers)	inactive
C=CCOC(=O)N[C@@H](CC(C)C)C(=O)N1C[C@@H]2C(Br)=NO[C@@H]2C1	> 40%
CC(C)(C)OC(=O)N[C@@H](Cc1ccccc1)C(=O)N1CC2ON=C(Br)C2C1 (mixture of isomers)	> 40%
CCCOC(=O)N[C@@H](CC(C)C)C(=O)N1CC2ON=C(Br)C2C1 (mixture of isomers)	11.3%
C=CCOC(=O)N[C@@H](Cc1ccccc1)C(=O)N1C[C@@H]2ON=C(Br)[C@@H]2C1	> 40%
C=CCOC(=O)N[C@@H](CCc1ccccc1)C(=O)N1CC2ON=C(Br)C2C1 (mixture of isomers)	> 40%
C=CCOC(=O)N[C@@H](CCc1ccccc1)C(=O)N1C[C@@H]2ON=C(Br)[C@@H]2C1	> 40%
CC(C)(C)OC(=O)N[C@@H](CCc1ccccc1)C(=O)N1CC2ON=C(Br)C2C1 (mixture of isomers)	5.8%
O=C(N[C@@H](Cc1ccccc1)C(=O)N1CC2ON=C(Br)C2C1)OCc1ccccc1 (mixture of isomers)	> 40%
C=CCOC(=O)N[C@@H](CCc1ccccc1)C(=O)N1C[C@@H]2C(Br)=NO[C@@H]2C1	> 40%
CC(C)C[C@H](NC(=O)OC(C)(C)C)C(=O)N1CC2ON=C(Br)C2C1 (mixture of isomers)	> 40%
C=CCOC(=O)N[C@@H](Cc1ccccc1)C(=O)N1CC2ON=C(Br)C2C1 (mixture of isomers)	> 40%
CC(C)C[C@H](NC(=O)OCc1ccccc1)C(=O)N1CC2ON=C(Br)C2C1 (mixture of isomers)	8.3%
O=C(N[C@@H](CCc1ccccc1)C(=O)N1C[C@@H]2C(Br)=NO[C@@H]2C1)OCC1CC1	15.7%
O=C(N[C@@H](CCc1ccccc1)C(=O)N1C[C@@H]2C(Br)=NO[C@@H]2C1)OCc1ccc([N+](=O)[O-])cc1	> 40%
C=CCOC(=O)N[C@@H](CC(C)C)C(=O)N1CC2ON=C(Br)C2C1 (mixture of isomers)	> 40%
C=CCOC(=O)N[C@@H](CC(C)C)C(=O)N1C[C@@H]2ON=C(Br)[C@@H]2C1	> 40%
CCCOC(=O)N[C@@H](Cc1ccccc1)C(=O)N1CC2ON=C(Br)C2C1 (mixture of isomers)	13.1%

Target: Cathepsin B (Homo sapiens) (UniProt P07858)
Assay: Inhibition of human cathepsin B using Cbz-Phe-Arg-AMC at 100 uM measured by fluorescence spectrophotometry
Conditions: not given

Structure (SMILES)	inhibition
C=CCOC(=O)N[C@@H](Cc1ccccc1)C(=O)N1C[C@@H]2C(Br)=NO[C@@H]2C1	inactive
CCCOC(=O)N[C@@H](CCc1ccccc1)C(=O)N1CC2ON=C(Br)C2C1 (mixture of isomers)	inactive
O=C(N[C@@H](CCc1ccccc1)C(=O)N1CC2ON=C(Br)C2C1)OCc1ccccc1 (mixture of isomers)	inactive
C=CCOC(=O)N[C@@H](CC(C)C)C(=O)N1C[C@@H]2C(Br)=NO[C@@H]2C1	inactive
CC(C)(C)OC(=O)N[C@@H](Cc1ccccc1)C(=O)N1CC2ON=C(Br)C2C1 (mixture of isomers)	inactive
CCCOC(=O)N[C@@H](CC(C)C)C(=O)N1CC2ON=C(Br)C2C1 (mixture of isomers)	inactive
C=CCOC(=O)N[C@@H](Cc1ccccc1)C(=O)N1C[C@@H]2ON=C(Br)[C@@H]2C1	inactive
C=CCOC(=O)N[C@@H](CCc1ccccc1)C(=O)N1CC2ON=C(Br)C2C1 (mixture of isomers)	inactive
C=CCOC(=O)N[C@@H](CCc1ccccc1)C(=O)N1C[C@@H]2ON=C(Br)[C@@H]2C1	inactive
CC(C)(C)OC(=O)N[C@@H](CCc1ccccc1)C(=O)N1CC2ON=C(Br)C2C1 (mixture of isomers)	inactive
O=C(N[C@@H](Cc1ccccc1)C(=O)N1CC2ON=C(Br)C2C1)OCc1ccccc1 (mixture of isomers)	inactive
C=CCOC(=O)N[C@@H](CCc1ccccc1)C(=O)N1C[C@@H]2C(Br)=NO[C@@H]2C1	inactive
CC(C)C[C@H](NC(=O)OC(C)(C)C)C(=O)N1CC2ON=C(Br)C2C1 (mixture of isomers)	inactive
C=CCOC(=O)N[C@@H](Cc1ccccc1)C(=O)N1CC2ON=C(Br)C2C1 (mixture of isomers)	inactive
CC(C)C[C@H](NC(=O)OCc1ccccc1)C(=O)N1CC2ON=C(Br)C2C1 (mixture of isomers)	inactive
O=C(N[C@@H](CCc1ccccc1)C(=O)N1C[C@@H]2C(Br)=NO[C@@H]2C1)OCC1CC1	inactive
O=C(N[C@@H](CCc1ccccc1)C(=O)N1C[C@@H]2C(Br)=NO[C@@H]2C1)OCc1ccc([N+](=O)[O-])cc1	inactive
C=CCOC(=O)N[C@@H](CC(C)C)C(=O)N1CC2ON=C(Br)C2C1 (mixture of isomers)	inactive
C=CCOC(=O)N[C@@H](CC(C)C)C(=O)N1C[C@@H]2ON=C(Br)[C@@H]2C1	inactive
CCCOC(=O)N[C@@H](Cc1ccccc1)C(=O)N1CC2ON=C(Br)C2C1 (mixture of isomers)	inactive

Target: Procathepsin L (Homo sapiens) (UniProt P07711)
Sequence (P07711 114-333 limits assumed): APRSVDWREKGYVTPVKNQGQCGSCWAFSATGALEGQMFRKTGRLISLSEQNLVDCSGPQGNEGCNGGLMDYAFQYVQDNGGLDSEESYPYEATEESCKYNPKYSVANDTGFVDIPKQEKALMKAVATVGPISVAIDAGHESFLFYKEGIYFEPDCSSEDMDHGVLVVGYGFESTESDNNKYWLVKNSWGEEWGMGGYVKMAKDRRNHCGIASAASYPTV
Assay: Inhibition of human cathepsin L using Cbz-Phe-Arg-AMC at 100 uM measured by fluorescence spectrophotometry
Conditions: not given

Structure (SMILES)	inhibition
C=CCOC(=O)N[C@@H](Cc1ccccc1)C(=O)N1C[C@@H]2C(Br)=NO[C@@H]2C1	inactive
C=CCOC(=O)N[C@@H](CC(C)C)C(=O)N1C[C@@H]2C(Br)=NO[C@@H]2C1	inactive
CC(C)(C)OC(=O)N[C@@H](Cc1ccccc1)C(=O)N1CC2ON=C(Br)C2C1 (mixture of isomers)	inactive
CCCOC(=O)N[C@@H](CC(C)C)C(=O)N1CC2ON=C(Br)C2C1 (mixture of isomers)	inactive
C=CCOC(=O)N[C@@H](Cc1ccccc1)C(=O)N1C[C@@H]2ON=C(Br)[C@@H]2C1	inactive
O=C(N[C@@H](Cc1ccccc1)C(=O)N1CC2ON=C(Br)C2C1)OCc1ccccc1 (mixture of isomers)	inactive
CC(C)C[C@H](NC(=O)OC(C)(C)C)C(=O)N1CC2ON=C(Br)C2C1 (mixture of isomers)	inactive
C=CCOC(=O)N[C@@H](Cc1ccccc1)C(=O)N1CC2ON=C(Br)C2C1 (mixture of isomers)	inactive
C=CCOC(=O)N[C@@H](CC(C)C)C(=O)N1CC2ON=C(Br)C2C1 (mixture of isomers)	inactive
C=CCOC(=O)N[C@@H](CC(C)C)C(=O)N1C[C@@H]2ON=C(Br)[C@@H]2C1	inactive
CCCOC(=O)N[C@@H](Cc1ccccc1)C(=O)N1CC2ON=C(Br)C2C1 (mixture of isomers)	inactive

System: Trypanosoma brucei brucei
Assay: Antitrypanosomal activity against Trypanosoma brucei brucei TC 221 after 48 hrs by Alamar Blue assay
Assay type: functional, organism-based
Conditions: TC 221, 48 h

Structure (SMILES)	IC50 [µM]
O=C(N[C@@H](Cc1ccccc1)C(=O)N1CC2ON=C(Br)C2C1)OCc1ccccc1 (mixture of isomers)	16.4

System: Trypanosoma brucei brucei
Assay: Antitrypanosomal activity against Trypanosoma brucei brucei TC 221 after 72 hrs by Alamar Blue assay
Assay type: functional, organism-based
Conditions: TC 221, 72 h

Structure (SMILES)	IC50 [µM]
O=C(N[C@@H](Cc1ccccc1)C(=O)N1CC2ON=C(Br)C2C1)OCc1ccccc1 (mixture of isomers)	18.2

System: not listed separately
Assay: Cytotoxicity against mouse J774.1 cells incubated for 24 to 48 hrs by Alamar Blue assay
Assay type: cell-based
Conditions: not given

Structure (SMILES)	IC50 [µM]
O=C(N[C@@H](Cc1ccccc1)C(=O)N1CC2ON=C(Br)C2C1)OCc1ccccc1 (mixture of isomers)	> 100

Target: Rhodesain (Trypanosoma brucei rhodesiense, UniProt Q95PM0)
Sequence (Q95PM0 whole entry): as the sequence (Q95PM0 1-450) above
Assay: Inhibition of Trypanosoma brucei rhodesiense rhodesain using Cbz-Phe-Arg-7-amino-4-methylcoumarin assessed as substrate hydrolysis measured by fluorescence analysis for 10 mins
Conditions: not given

Structure (SMILES)	Ki [µM]
C=CCOC(=O)N[C@@H](Cc1ccccc1)C(=O)N1C[C@@H]2C(Br)=NO[C@@H]2C1	15.1
C=CCOC(=O)N[C@@H](CC(C)C)C(=O)N1C[C@@H]2C(Br)=NO[C@@H]2C1	8.52
CC(C)(C)OC(=O)N[C@@H](Cc1ccccc1)C(=O)N1CC2ON=C(Br)C2C1 (mixture of isomers)	17.7
C=CCOC(=O)N[C@@H](Cc1ccccc1)C(=O)N1C[C@@H]2ON=C(Br)[C@@H]2C1	16.6
C=CCOC(=O)N[C@@H](CCc1ccccc1)C(=O)N1CC2ON=C(Br)C2C1 (mixture of isomers)	2.62
C=CCOC(=O)N[C@@H](CCc1ccccc1)C(=O)N1C[C@@H]2ON=C(Br)[C@@H]2C1	3.35
O=C(N[C@@H](Cc1ccccc1)C(=O)N1CC2ON=C(Br)C2C1)OCc1ccccc1 (mixture of isomers)	8.41
C=CCOC(=O)N[C@@H](CCc1ccccc1)C(=O)N1C[C@@H]2C(Br)=NO[C@@H]2C1	2.73
CC(C)C[C@H](NC(=O)OC(C)(C)C)C(=O)N1CC2ON=C(Br)C2C1 (mixture of isomers)	13.6
C=CCOC(=O)N[C@@H](Cc1ccccc1)C(=O)N1CC2ON=C(Br)C2C1 (mixture of isomers)	16.8
O=C(N[C@@H](CCc1ccccc1)C(=O)N1C[C@@H]2C(Br)=NO[C@@H]2C1)OCc1ccc([N+](=O)[O-])cc1	6.81
C=CCOC(=O)N[C@@H](CC(C)C)C(=O)N1CC2ON=C(Br)C2C1 (mixture of isomers)	8.36
C=CCOC(=O)N[C@@H](CC(C)C)C(=O)N1C[C@@H]2ON=C(Br)[C@@H]2C1	9.05

From ChEMBL document CHEMBL3627659, “Development of novel dipeptide-like rhodesain inhibitors containing the 3-bromoisoxazoline warhead in a constrained conformation” (Bioorg Med Chem, 2015)
